# According to article PMC7617869, “Molecular glues that inhibit deubiquitylase activity and inflammatory signaling” (Nature Structural & Molecular Biology, 2025):
# “And” between values parts separate entries of the source, which are not always exact repeats. Identical values can stand only once.
# Experiments:
# Type in all cases: cell-based, human
# [1] = tested on: NF-κB pathway in THP-1 cells; experiment: THP-1 NF-κB pathway SEAP reporter, lipopolysaccharide stimulation; settings: LPS + compound, three replicates
# Method: THP-1 in vitro experiments
# THP-1-DualTM cells (InvivoGen), derived from a human monocytic cell line, isolated from a patient with acute monocytic leukaemia, were cultured as per manufacturer’s guidance. Cells were seeded at 1x10^6 cells/mL in RPMI1640 media containing 10% fetal bovine serum (FBS), 1% penicillin-streptomycin (PS) (Gibco Laboratories) with DMSO (0.1%) (control) or in media containing JMS-175- […]
# ng/mL) (Merck Life Science), ODN 2216 (1 µM) (Miltenyi Biotec), or Poly:IC (1 µg/mL) (InvivoGen).
# Tofacitinib (Cambridge Biosciences) at 0.4 µM was used for comparison against a known JAK inhibitor.
# Cells were centrifuged at 300 g for 5 minutes. Supernatant was removed and subjected to simultaneous study of the NF -κB pathway, by monitoring the activity of secreted alkaline phosphatase reporter (SEAP), and the IRF pathway, by assessing the activity o f a secreted Lucia luciferase using QUANTI - Blue ™ Solution and QUANTI -Luc™ 4 Lucia/Gaussia (InvivoGen), respectively, as per manufacturer’s instructions. Pelleted cells were used for FACS analysis using IFNα/β R1 APC-conjugated antibody or isotype control (Biotechne, FAB245A and IC002A), or unstained staining procedure with and without Zombie GreenTM (Biolegend). Samples were analysed using CytoFlex LX (Beckman) (50,000 live cells per condition). Median fluorescence intensity for APC channel gated on single cell live cells was analysed and compared as a percentage to control (no stimulation condition). […]
# [2] = tested on: ISG expression in healthy control PBMCs; experiment: Healthy PBMC type I IFN signaling gene expression array, IFNα2-stimulated; settings: IFNα2 20 ng/mL, 2 µM, 16 h
# Method: NEM). Cell lysates were clarified by centrifugation at 15,000 g for 10 minutes at 4 °C. Clarified lysates were pre-cleared with control uncoupled agarose beads (UM400, LifeSensors) for 30 minutes on a rotator at 4 °C followed by centrifugation at 5,000 g for 2 minutes. Equal amount of pre-cleared lysates from individual samples were incubated with 20 µL Agarose-TUBE beads (pre-equilibrated with 1X Tris-buffered saline (TBS)) overnight on a rotator at 4 °C. Beads were collected by centrifugation at 5,000 g for 2 minutes at RT followed by four stringent washes with 1X TBST (TBS, 0.1% Tween-20). TUBE-pulldown proteins were eluted by boiling Agarose-TUBE beads in 2X LDS sample buffer supplemented with […] DTT for 15 minutes. Eluted proteins were resolved on NuPAGE™ 4–12% Bis–Tris gel followed by Western blotting using anti-IFNAR1 antibody (ab124764, Abcam).
# (§1) PBMCs in vitro experiments
# (§2) Peripheral blood mononuclear cells (PBMCs) from healthy and SSc donors were separated using density gradient method (Leucosep™, Greiner Bio-One International) from EDTA anticoagulated peripheral blood; isolated cells were washed twice by PBS. PBMCs were then incubated in RPMI1640 […]
# For healthy PBMCs, cells were stimulated with 20 ng/mL of IFN (+/- compounds or DMSO). […] Concentration of CXCL10 was determined according to a 4-parameter logistic regression standard curve. […]
# For Type I IFN signalling analysis, the human IFN I RT2 Profiler PCR Array (Qiagen, PAMM-016ZE) was performed on available RNA from healthy (n=3) and SSc (n=9) donors. […] Relative expression for each gene was determined, firstly by ∆CT calculated using the geometric mean of 4 housekeeping genes (ACTB, GAPDH, HPRT1, RPLP0), followed by 2^(-∆CT), and expressed as fold change to control, according to manufacturer’s guidance. IFN2α-induced ISGs in healthy donors were determined using a Student’s t-test (two-tail distribution and equal variances) on the triplicate fold change in 2^(-ΔCT) values between […]
# (§3) R Foundation for Statistical Computing). The IFN2α inducible genes determined in healthy donors […]
# [3] = tested on: ISG expression in SSc PBMCs; experiment: SSc PBMC type I IFN signaling gene expression array, unstimulated
# Method: as §1, §2
# For healthy PBMCs, cells were stimulated with 20 ng/mL of IFN (+/- compounds or DMSO). For SSc PBMCs, cells were in basal conditions with no additional IFN stimulation. Cells were centrifuged at 300 g for 10 minutes. […]
# RNA was extracted from cell pellets using TRIzol™ (ThermoFisher
# Scientific, Waltham, MA) and processed using Quick-RNA Miniprep Kit (Zymo Research) as per the manufacturer’s instruction.
# For Type I IFN signalling analysis, the human IFN I RT2 Profiler PCR Array (Qiagen, PAMM-016ZE) was performed on available RNA from healthy (n=3) and SSc (n=9) donors. RNA was converted to cDNA using RT2 First Strand Kit (Qiagen). Next, the cDNA was mixed with RT2 SYBR Green Mastermix (Qiagen, Venlo). Successful PCR performance was confirmed by assay tests for genomic DNA contamination, RNA sample quality, as well as single melt curve determination and <35 Ct for each gene, leading to validated gene expression of 67 genes. Relative expression for each gene was determined, firstly by ∆CT calculated using the geometric mean of 4 housekeeping genes (ACTB, GAPDH, HPRT1, RPLP0), followed by 2^(-∆CT), and expressed as fold change to control, according to manufacturer’s guidance. IFN2α-induced ISGs in healthy donors were determined using a Student’s t-test (two-tail distribution and equal variances) on the triplicate fold change in 2^(-ΔCT) values between […]
# donors). Heatmaps were generated using the “pheatmap” function in R (v4.0.2) and RStudio (v1.3.1093) applying row scaling to standardise the expression data across samples (R core team 2020.
# as §3
# 171-C. To account for Type I IFN signalling heterogeneity across samples, the mean 2^(-∆CT) for each […]
# relative gene expression, illustrated as a fold change and visualised in log2. The Type I IFN signalling array data for the patient samples is included in Source Data Figure 6, Extended Data Fig. 9.
# [4] = unstimulated PBMCs from SSc patients, one value per patient (P1-P9)
smiles,measurement,setting,value
O=C(NC1C2CNCC21)c1nn(C(=O)c2c(Cl)cccc2Cl)cc1NC(=O)c1c(Cl)cccc1Cl (stereo not shown) [FX-171-C],NF-κB SEAP reporter signal,[1],1.133 and 1.071 and 1.161
same,IFN-induced ISG expression (in words),[2],less reduction in ISG expression
same,ISG expression (in words),"[3]; SSc PBMCs (n = 9), 2 µM, 16 h, compared to AP-5-145",lesser effect
same,"ADAR, Type I IFN signalling array raw data",[3]; [4],3.858 and 4.274 and 4.001 and 4.68 and 4.777 and 4.208 and 3.331 and 4.913 and 3.918
same,"BST2, Type I IFN signalling array raw data",[3]; [4],3.573 and 2.8591 and 2.177 and 3.614 and 3.672 and 2.327 and 3.468 and 1.591 and 2.873
same,"CASP1, Type I IFN signalling array raw data",[3]; [4],2.548 and 2.002 and 1.941 and 1.134 and 2.888 and 1.296 and 2.046 and 2.574 and 1.867
same,"CD86, Type I IFN signalling array raw data",[3]; [4],6.165 and 2.65 and 5.65 and 3.485 and 4.729 and 3.419 and 6.169 and 4.499 and 4.78
same,"CXCL10, Type I IFN signalling array raw data",[3]; [4],5.471 and 2.917 and 2.582 and 4.742 and 4.877 and 6.905 and 4.483 and 4.8707 and 3.923
same,"DDX58, Type I IFN signalling array raw data",[3]; [4],3.35 and 3.309 and 2.1354 and 2.913 and 3.785 and 3.502 and 1.974 and 1.829 and 2.968
same,"GBP1, Type I IFN signalling array raw data",[3]; [4],2.688 and 1.367 and 1.422 and 2.895 and 1.583 and 2.086 and 0.7206 and 2.179 and 0.5673
same,"IFI6, Type I IFN signalling array raw data",[3]; [4],3.893 and 2.681 and 0.9581 and 2.49 and 3.897 and 2.026 and 3.3942 and 1.435 and 1.657
same,"IFI16, Type I IFN signalling array raw data",[3]; [4],1.765 and 1.775 and 1.077 and 1.992 and 2.377 and 1.622 and 1.064 and 1.533 and 1.821
same,"IFIH1, Type I IFN signalling array raw data",[3]; [4],4.423 and 3.6 and 2.511 and 3.468 and 5.097 and 3.98 and 3.849 and 3.949 and 3.417
same,"IFIT1, Type I IFN signalling array raw data",[3]; [4],4.29 and 4.385 and 1.626 and 3.83 and 6.5533 and 6.518 and 4.252 and 2.844 and 3.475
same,"IFIT2, Type I IFN signalling array raw data",[3]; [4],4.664 and 3.908 and 1.678 and 5.248 and 5.235 and 3.764 and 3.486 and 3.028 and 3.269
same,"IFIT3, Type I IFN signalling array raw data",[3]; [4],3.799 and 3.675 and 1.209 and 4.928 and 5.414 and 5.436 and 3.503 and 5.877 and 2.486
same,"IFITM1, Type I IFN signalling array raw data",[3]; [4],0.9488 and 1.1781 and 0.3954 and 0.8994 and 1.9714 and 0.8768 and 1.144 and 1.6293 and 0.7125
same,"IFITM2, Type I IFN signalling array raw data",[3]; [4],4.648 and 5.173 and 4.79 and 4.974 and 4.481 and 3.9861 and 4.845 and 5.367 and 4.762
same,"IFITM3, Type I IFN signalling array raw data",[3]; [4],3.968 and 3.916 and 1.59 and 3.568 and 4.151 and 2.877 and 3.902 and 1.131 and 2.5357
same,"IRF1, Type I IFN signalling array raw data",[3]; [4],2.547 and 1.821 and 1.073 and 2.335 and 1.158 and 0.9908 and 0.6649 and 1.927 and 1.207
same,"IRF7, Type I IFN signalling array raw data",[3]; [4],6.802 and 6.586 and 3.986 and 5.798 and 5.443 and 4.601 and 5.372 and 4.2831 and 3.547
same,"IRF9, Type I IFN signalling array raw data",[3]; [4],2.19 and 2.335 and 0.975 and 2.229 and 2.461 and 1.8963 and 1.69 and 1.214 and 1.521
same,"ISG15, Type I IFN signalling array raw data",[3]; [4],3.986 and 3.922 and 0.692 and 4.262 and 5.477 and 7.495 and 2.508 and 1.711 and 2.311
same,"ISG20, Type I IFN signalling array raw data",[3]; [4],2.62 and 3.224 and 2.385 and 3.3 and 3.623 and 2.618 and 2.595 and 4.036 and 2.585
same,"MX1, Type I IFN signalling array raw data",[3]; [4],3.107 and 4.405 and 1.261 and 5.21 and 5.062 and 3.692 and 3.866 and 4.591 and 2.854
same,"MX2, Type I IFN signalling array raw data",[3]; [4],4.125 and 4.0818 and 1.607 and 3.741 and 5.0213 and 4.032 and 3.318 and 2.653 and 2.691
same,"MYD88, Type I IFN signalling array raw data",[3]; [4],3.738 and 3.075 and 2.51 and 2.925 and 2.927 and 2.376 and 3.074 and 1.908 and 3.454
same,"NMI, Type I IFN signalling array raw data",[3]; [4],2.143 and 1.85 and 1.491 and 1.973 and 3.716 and 1.264 and 1.346 and 2.497 and 2.32
same,"OAS1, Type I IFN signalling array raw data",[3]; [4],4.424 and 3.836 and 1.737 and 5.327 and 4.793 and 3.413 and 3.498 and 2.187 and 2.863
same,"OAS2, Type I IFN signalling array raw data",[3]; [4],4.608 and 3.615 and 1.642 and 3.798 and 4.119 and 3.655 and 2.504 and 2.941 and 2.821
same,"PML, Type I IFN signalling array raw data",[3]; [4],4.552 and 5.075 and 2.988 and 4.3611 and 4.177 and 3.436 and 3.3349 and 3.807 and 3.407
same,"SOCS1, Type I IFN signalling array raw data",[3]; [4],3.578 and 4.266 and 3.582 and 3.8466 and 3.6323 and 2.7 and 3.416 and 2.793 and 2.573
same,"STAT1, Type I IFN signalling array raw data",[3]; [4],0.977 and -0.7577 and -0.7275 and 0.7898 and -0.2011 and 0.5637 and -1.166 and 0.2201 and -0.8389
same,"STAT2, Type I IFN signalling array raw data",[3]; [4],3.968 and 3.159 and 2.8038 and 5.573 and 3.712 and 3.001 and 2.882 and 3.307 and 2.683
same,"STAT3, Type I IFN signalling array raw data",[3]; [4],6.676 and 4.39 and 1.897 and 3.494 and 2.053 and 1.773 and 1.353 and 3.435 and 1.673
same,"TAP1, Type I IFN signalling array raw data",[3]; [4],2.3591 and 1.9257 and 1.563 and 2.7124 and 1.578 and 1.336 and 0.8182 and 1.844 and 1.137
same,"TNFSF10, Type I IFN signalling array raw data",[3]; [4],3.902 and 3.285 and 2.141 and 3.031 and 3.789 and 2.995 and 3.1028 and 5.015 and 2.882
